{"source": "ChEMBL document CHEMBL3745675", "about": "“Design and optimization of selective azaindole amide M1 positive allosteric modulators” (Bioorg Med Chem Lett, 2016)", "key": {"Plasma [1]": {"system": "Plasma", "assay": "Fraction unbound in C57BL/6j mouse plasma at 10 mg/kg, sc after 1 hr", "format": "ADME, organism-based", "conditions": "in vivo"}, "[2]": {"assay": "Permeability in RRCK cells", "format": "ADME, cell-based, Canis lupus familiaris, MDCKII-LE", "conditions": "dog, MDCK; read-out: permeability"}, "[3]": {"assay": "Ratio of unbound AUC in brain to plasma in C57BL/6j mouse", "format": "ADME, organism-based", "conditions": "read-out: Ratio AUC"}, "[4]": {"assay": "Ratio of unbound AUC in brain to plasma in Wistar Hann rat", "format": "ADME, organism-based", "conditions": "read-out: Ratio AUC"}, "[5]": {"assay": "Oral bioavailability in Wistar Hann rat", "format": "ADME, organism-based", "conditions": "in vivo"}, "Plasma [6]": {"system": "Plasma", "assay": "Fraction unbound in C57BL/6j mouse plasma", "format": "ADME, cell-free"}, "Plasma [7]": {"system": "Plasma", "assay": "Fraction unbound in Wistar Hann rat plasma", "format": "ADME, cell-free"}, "Plasma [8]": {"system": "Plasma", "assay": "Fraction unbound in C57BL/6j mouse plasma at […], sc after 1 hr", "format": "ADME, organism-based", "conditions": "in vivo"}, "[9]": {"assay": "Ratio drug level in brain to plasma in C57BL/6j mouse at […], sc after 1 hr", "format": "ADME, organism-based", "conditions": "read-out: BPR"}, "[10]": {"assay": "Ratio of unbound AUC in brain to plasma in C57BL/6j mouse at […], sc after 1 hr", "format": "ADME, organism-based", "conditions": "read-out: Ratio AUC"}, "[11]": {"assay": "Ratio drug level in brain to plasma in C57BL/6j mouse at 10 mg/kg, sc after 1 hr", "format": "ADME, organism-based", "conditions": "read-out: BPR"}, "[12]": {"assay": "Ratio of unbound AUC in brain to plasma in C57BL/6j mouse at 10 mg/kg, sc after 1 hr", "format": "ADME, organism-based", "conditions": "read-out: Ratio AUC"}, "Plasma [13]": {"system": "Plasma", "assay": "Fraction unbound in C57BL/6j mouse plasma at 10 mg/kg, sc after 0.5 hrs", "format": "ADME, organism-based", "conditions": "in vivo"}, "[14]": {"assay": "Ratio drug level in brain to plasma in C57BL/6j mouse at 10 mg/kg, sc after 0.5 hrs", "format": "ADME, organism-based", "conditions": "read-out: BPR"}, "[15]": {"assay": "Ratio of unbound AUC in brain to plasma in C57BL/6j mouse at 10 mg/kg, sc after 0.5 hrs", "format": "ADME, organism-based", "conditions": "read-out: Ratio AUC"}, "Plasma [16]": {"system": "Plasma", "assay": "Fraction unbound in C57BL/6j mouse plasma at 10 mg/kg, sc after 2 hrs", "format": "ADME, organism-based", "conditions": "in vivo"}, "[17]": {"assay": "Ratio drug level in brain to plasma in C57BL/6j mouse at 10 mg/kg, sc after 2 hrs", "format": "ADME, organism-based", "conditions": "read-out: BPR"}, "[18]": {"assay": "Ratio of unbound AUC in brain to plasma in C57BL/6j mouse at 10 mg/kg, sc after 2 hrs", "format": "ADME, organism-based", "conditions": "read-out: Ratio AUC"}, "Plasma [19]": {"system": "Plasma", "assay": "Fraction unbound in C57BL/6j mouse plasma at 10 mg/kg, sc after 4 hrs", "format": "ADME, organism-based", "conditions": "in vivo"}, "[20]": {"assay": "Ratio drug level in brain to plasma in C57BL/6j mouse at 10 mg/kg, sc after 4 hrs", "format": "ADME, organism-based", "conditions": "read-out: BPR"}, "[21]": {"assay": "Ratio of unbound AUC in brain to plasma in C57BL/6j mouse at 10 mg/kg, sc after 4 hrs", "format": "ADME, organism-based", "conditions": "read-out: Ratio AUC"}, "[22]": {"assay": "AUC (0 to 24 hrs) in Wistar Hann rat at 0.5 mg/kg, iv", "format": "ADME, organism-based", "set-up": "dose 0.5 mg/kg, time < 24 hr, route intravenous", "conditions": "in vivo"}, "[23]": {"assay": "Intial plasma concentration in Wistar Hann rat at 0.5 mg/kg, iv", "format": "ADME, organism-based"}, "[24]": {"assay": "Volume of distribution at steady state in Wistar Hann rat at 0.5 mg/kg, iv", "format": "ADME, organism-based", "conditions": "in vivo, read-out: Vdss"}, "[25]": {"assay": "Cmax in Wistar Hann rat at 2 mg/kg, po", "format": "ADME, organism-based", "set-up": "dose 2 mg/kg, route oral", "conditions": "in vivo"}, "[26]": {"assay": "Tmax in Wistar Hann rat at 2 mg/kg, po", "format": "ADME, organism-based", "conditions": "in vivo"}, "[27]": {"assay": "AUC in Wistar Hann rat at 2 mg/kg, po", "format": "ADME, organism-based", "conditions": "in vivo"}, "[28]": {"assay": "Oral bioavailability in Wistar Hann rat at 2 mg/kg", "format": "ADME, organism-based", "conditions": "in vivo"}, "[29]": {"assay": "Drug concentration in Wistar Hann rat brain at 5 mg/kg, sc after 1 hr", "format": "ADME, organism-based", "conditions": "read-out: Drug uptake"}, "[30]": {"assay": "Drug concentration in Wistar Hann rat brain at 5 mg/kg, sc after 2 hrs", "format": "ADME, organism-based", "conditions": "read-out: Drug uptake"}, "[31]": {"assay": "Drug concentration in Wistar Hann rat brain at 5 mg/kg, sc after 4 hrs", "format": "ADME, organism-based", "conditions": "read-out: Drug uptake"}, "[32]": {"assay": "Drug concentration in Wistar Hann rat brain at 5 mg/kg, sc after 6 hrs", "format": "ADME, organism-based", "conditions": "read-out: Drug uptake"}, "[33]": {"assay": "Drug concentration in Wistar Hann rat plasma at 5 mg/kg, sc after 1 hr", "format": "ADME, organism-based"}, "[34]": {"assay": "Drug concentration in Wistar Hann rat plasma at 5 mg/kg, sc after 2 hrs", "format": "ADME, organism-based"}, "[35]": {"assay": "Drug concentration in Wistar Hann rat plasma at 5 mg/kg, sc after 4 hrs", "format": "ADME, organism-based"}, "[36]": {"assay": "Drug concentration in Wistar Hann rat plasma at 5 mg/kg, sc after 6 hrs", "format": "ADME, organism-based"}}}
{"smiles": "Cn1ccc(-c2ccc(Cn3cc(C(=O)N[C@H]4CCOC[C@@H]4O)c4ncccc43)cc2)n1", "values": [{"measurement": "Cp(f)", "setting": "Plasma [1]", "value": 560, "unit": "nM"}, {"measurement": "Papp", "setting": "[2]", "value": 31.5, "unit": "×10⁻⁶ cm/s"}, {"measurement": "Kp uu", "setting": "[3]", "value": 0.2}, {"measurement": "Kp uu", "setting": "[4]", "value": 0.15}, {"measurement": "bioavailability", "setting": "[5]", "value": 69, "unit": "%"}, {"measurement": "Cp(f)", "setting": "Plasma [6]", "value": 0.027, "unit": "nM"}, {"measurement": "Cp(f)", "setting": "Plasma [7]", "value": 0.092, "unit": "nM"}, {"measurement": "Cp(f)", "setting": "Plasma [8]", "value": 302.2, "unit": "nM"}, {"measurement": "Kp at 1 h", "setting": "[9]", "value": 0.04}, {"measurement": "Kp uu at 1 h", "setting": "[10]", "value": 0.1}, {"measurement": "Kp at 1 h", "setting": "[11]", "value": 0.07}, {"measurement": "Kp uu at 1 h", "setting": "[12]", "value": 0.18}, {"measurement": "Cp(f)", "setting": "Plasma [13]", "value": 295, "unit": "nM"}, {"measurement": "Kp at 0.5 h", "setting": "[14]", "value": 0.14}, {"measurement": "Kp uu at 0.5 h", "setting": "[15]", "value": 0.34}, {"measurement": "Cp(f)", "setting": "Plasma [16]", "value": 379, "unit": "nM"}, {"measurement": "Kp at 2 h", "setting": "[17]", "value": 0.06}, {"measurement": "Kp uu at 2 h", "setting": "[18]", "value": 0.16}, {"measurement": "Cp(f)", "setting": "Plasma [19]", "value": 218, "unit": "nM"}, {"measurement": "Kp at 4 h", "setting": "[20]", "value": 0.1}, {"measurement": "Kp uu at 4 h", "setting": "[21]", "value": 0.24}, {"measurement": "AUC(0-t) at 24 h", "setting": "[22]", "value": 1660, "unit": "ng·h/mL"}, {"measurement": "C0", "setting": "[23]", "value": 535, "unit": "ng/mL"}, {"measurement": "Vd", "setting": "[24]", "value": 1.49, "unit": "L/kg"}, {"measurement": "Cmax", "setting": "[25]", "value": 600, "unit": "ng/mL"}, {"measurement": "Tmax", "setting": "[26]", "value": 1.5, "unit": "h"}, {"measurement": "AUC", "setting": "[27]", "value": 4510, "unit": "ng·h/mL"}, {"measurement": "bioavailability", "setting": "[28]", "value": 67.9, "unit": "%"}, {"measurement": "concentration at 1 h", "setting": "[29]", "value": 1050, "unit": "nM"}, {"measurement": "concentration at 2 h", "setting": "[30]", "value": 944, "unit": "nM"}, {"measurement": "concentration at 4 h", "setting": "[31]", "value": 681, "unit": "nM"}, {"measurement": "concentration at 6 h", "setting": "[32]", "value": 409, "unit": "nM"}, {"measurement": "concentration at 1 h", "setting": "[33]", "value": 5030, "unit": "nM"}, {"measurement": "concentration at 2 h", "setting": "[34]", "value": 5460, "unit": "nM"}, {"measurement": "concentration at 4 h", "setting": "[35]", "value": 3190, "unit": "nM"}, {"measurement": "concentration at 6 h", "setting": "[36]", "value": 2150, "unit": "nM"}]}
